Test results as given in publication PMC4076210, “Discovery of Novel AKT Inhibitors with Enhanced Anti-Tumor Effects in Combination with the MEK Inhibitor” (PLoS ONE, 2014).
Like-named read-outs stand apart in the source and are kept apart here.

Key:
[1] = biological target: T1, ARK5(h) (Homo sapiens, UniProt O60285); assay: Kinase panel; format: biochemical
T1 construct: purchased Millipore KinaseProfiler
T1 sequence (O60285 1-661): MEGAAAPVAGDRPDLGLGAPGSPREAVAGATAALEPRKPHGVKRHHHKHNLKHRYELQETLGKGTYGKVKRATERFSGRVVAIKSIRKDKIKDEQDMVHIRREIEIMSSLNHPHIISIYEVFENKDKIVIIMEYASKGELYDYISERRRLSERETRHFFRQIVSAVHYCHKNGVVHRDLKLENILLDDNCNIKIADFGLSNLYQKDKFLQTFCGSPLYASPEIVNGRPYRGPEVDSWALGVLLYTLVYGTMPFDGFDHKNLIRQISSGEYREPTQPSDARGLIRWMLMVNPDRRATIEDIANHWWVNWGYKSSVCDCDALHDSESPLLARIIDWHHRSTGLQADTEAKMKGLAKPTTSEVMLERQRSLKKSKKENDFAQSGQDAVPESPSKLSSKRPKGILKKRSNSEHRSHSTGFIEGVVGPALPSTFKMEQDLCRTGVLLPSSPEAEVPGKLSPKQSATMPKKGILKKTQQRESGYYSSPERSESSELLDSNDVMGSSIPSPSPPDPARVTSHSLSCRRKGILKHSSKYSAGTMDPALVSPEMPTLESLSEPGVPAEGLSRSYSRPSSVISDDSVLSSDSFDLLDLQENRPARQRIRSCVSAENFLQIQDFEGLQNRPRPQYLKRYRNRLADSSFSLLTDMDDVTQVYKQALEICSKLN

[2] = biological target: T2, CHK2(I157T)(h) (Homo sapiens, UniProt O96017, I157T); assay: Kinase panel; format: biochemical
T2 construct: purchased Millipore KinaseProfiler
T2 sequence (O96017 whole entry I157T): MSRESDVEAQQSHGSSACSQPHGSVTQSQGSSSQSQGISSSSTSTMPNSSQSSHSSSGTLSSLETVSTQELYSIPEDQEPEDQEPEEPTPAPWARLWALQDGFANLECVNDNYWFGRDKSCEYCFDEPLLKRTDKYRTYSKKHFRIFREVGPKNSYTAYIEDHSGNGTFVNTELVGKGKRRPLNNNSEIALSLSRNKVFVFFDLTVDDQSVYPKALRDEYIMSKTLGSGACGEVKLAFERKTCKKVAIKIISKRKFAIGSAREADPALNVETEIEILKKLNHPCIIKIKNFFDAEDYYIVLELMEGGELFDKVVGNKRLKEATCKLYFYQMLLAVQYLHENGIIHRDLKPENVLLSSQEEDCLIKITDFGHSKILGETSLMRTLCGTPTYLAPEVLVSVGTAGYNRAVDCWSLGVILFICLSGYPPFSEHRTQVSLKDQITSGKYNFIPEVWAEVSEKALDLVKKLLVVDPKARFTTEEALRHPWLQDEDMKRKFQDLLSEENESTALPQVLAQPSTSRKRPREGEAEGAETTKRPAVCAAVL

[3] = biological target: T3, Rsk2(h) (Homo sapiens, UniProt P51812); assay: Kinase panel; format: biochemical
T3 construct: purchased Millipore KinaseProfiler
T3 sequence (P51812 whole entry): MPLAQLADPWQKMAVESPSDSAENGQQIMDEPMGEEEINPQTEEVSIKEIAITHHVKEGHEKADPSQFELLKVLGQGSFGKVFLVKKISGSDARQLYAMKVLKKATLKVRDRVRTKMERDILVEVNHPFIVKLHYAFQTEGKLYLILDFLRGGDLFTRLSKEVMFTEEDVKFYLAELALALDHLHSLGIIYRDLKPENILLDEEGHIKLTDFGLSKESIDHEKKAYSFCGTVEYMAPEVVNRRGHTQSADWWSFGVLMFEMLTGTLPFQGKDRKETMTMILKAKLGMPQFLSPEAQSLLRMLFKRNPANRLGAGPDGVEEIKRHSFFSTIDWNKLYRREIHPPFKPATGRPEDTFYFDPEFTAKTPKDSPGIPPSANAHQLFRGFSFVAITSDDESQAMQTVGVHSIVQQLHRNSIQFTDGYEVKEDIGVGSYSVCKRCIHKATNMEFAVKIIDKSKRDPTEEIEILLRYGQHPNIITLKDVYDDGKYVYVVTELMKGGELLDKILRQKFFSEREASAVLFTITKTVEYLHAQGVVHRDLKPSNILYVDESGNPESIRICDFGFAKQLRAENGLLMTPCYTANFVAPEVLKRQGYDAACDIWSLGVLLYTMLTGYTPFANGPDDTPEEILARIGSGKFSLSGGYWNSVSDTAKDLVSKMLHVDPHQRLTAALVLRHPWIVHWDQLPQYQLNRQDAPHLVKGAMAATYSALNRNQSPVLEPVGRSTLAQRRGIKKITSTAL

[4] = biological target: T4, GSK3β(h) (Homo sapiens, UniProt P49841); assay: Kinase panel; format: biochemical
T4 construct: purchased Millipore KinaseProfiler
T4 sequence (P49841 whole entry): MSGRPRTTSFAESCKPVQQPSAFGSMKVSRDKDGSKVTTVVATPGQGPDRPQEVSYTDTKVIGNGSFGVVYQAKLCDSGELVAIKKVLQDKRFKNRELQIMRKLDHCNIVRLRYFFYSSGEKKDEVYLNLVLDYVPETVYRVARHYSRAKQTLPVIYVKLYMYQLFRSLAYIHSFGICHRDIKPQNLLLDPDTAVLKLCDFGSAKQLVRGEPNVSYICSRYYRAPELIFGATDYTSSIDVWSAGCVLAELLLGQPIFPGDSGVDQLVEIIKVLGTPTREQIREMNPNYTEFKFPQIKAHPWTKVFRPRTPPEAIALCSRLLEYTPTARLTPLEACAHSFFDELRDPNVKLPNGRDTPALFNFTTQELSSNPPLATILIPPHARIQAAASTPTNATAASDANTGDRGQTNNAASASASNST

[5] = biological target: T5, PKCβII(h) (Homo sapiens, UniProt P05771); assay: Kinase panel; format: biochemical
T5 construct: purchased Millipore KinaseProfiler
T5 sequence (P05771 1-673 isoform P05771-2): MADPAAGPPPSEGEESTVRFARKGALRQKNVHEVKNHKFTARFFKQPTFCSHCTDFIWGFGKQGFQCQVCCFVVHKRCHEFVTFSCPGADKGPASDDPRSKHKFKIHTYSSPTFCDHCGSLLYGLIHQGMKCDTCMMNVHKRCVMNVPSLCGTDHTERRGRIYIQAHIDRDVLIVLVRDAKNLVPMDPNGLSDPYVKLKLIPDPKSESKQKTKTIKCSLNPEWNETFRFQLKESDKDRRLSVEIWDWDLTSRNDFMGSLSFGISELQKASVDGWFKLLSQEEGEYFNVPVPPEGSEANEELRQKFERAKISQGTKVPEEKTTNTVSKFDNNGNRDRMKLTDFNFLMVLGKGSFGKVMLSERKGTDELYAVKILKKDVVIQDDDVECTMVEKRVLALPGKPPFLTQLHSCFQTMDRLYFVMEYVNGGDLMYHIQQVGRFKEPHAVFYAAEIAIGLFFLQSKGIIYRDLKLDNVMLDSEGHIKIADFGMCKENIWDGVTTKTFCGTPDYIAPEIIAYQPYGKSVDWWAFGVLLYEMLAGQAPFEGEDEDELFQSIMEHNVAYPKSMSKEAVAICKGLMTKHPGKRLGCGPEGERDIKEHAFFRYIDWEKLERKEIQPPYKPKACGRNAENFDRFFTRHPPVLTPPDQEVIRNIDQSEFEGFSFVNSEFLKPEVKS

[6] = biological target: T6, Pyk2(h) (Homo sapiens, UniProt Q14289); assay: Kinase panel; format: biochemical
T6 construct: purchased Millipore KinaseProfiler
T6 sequence (Q14289 whole entry): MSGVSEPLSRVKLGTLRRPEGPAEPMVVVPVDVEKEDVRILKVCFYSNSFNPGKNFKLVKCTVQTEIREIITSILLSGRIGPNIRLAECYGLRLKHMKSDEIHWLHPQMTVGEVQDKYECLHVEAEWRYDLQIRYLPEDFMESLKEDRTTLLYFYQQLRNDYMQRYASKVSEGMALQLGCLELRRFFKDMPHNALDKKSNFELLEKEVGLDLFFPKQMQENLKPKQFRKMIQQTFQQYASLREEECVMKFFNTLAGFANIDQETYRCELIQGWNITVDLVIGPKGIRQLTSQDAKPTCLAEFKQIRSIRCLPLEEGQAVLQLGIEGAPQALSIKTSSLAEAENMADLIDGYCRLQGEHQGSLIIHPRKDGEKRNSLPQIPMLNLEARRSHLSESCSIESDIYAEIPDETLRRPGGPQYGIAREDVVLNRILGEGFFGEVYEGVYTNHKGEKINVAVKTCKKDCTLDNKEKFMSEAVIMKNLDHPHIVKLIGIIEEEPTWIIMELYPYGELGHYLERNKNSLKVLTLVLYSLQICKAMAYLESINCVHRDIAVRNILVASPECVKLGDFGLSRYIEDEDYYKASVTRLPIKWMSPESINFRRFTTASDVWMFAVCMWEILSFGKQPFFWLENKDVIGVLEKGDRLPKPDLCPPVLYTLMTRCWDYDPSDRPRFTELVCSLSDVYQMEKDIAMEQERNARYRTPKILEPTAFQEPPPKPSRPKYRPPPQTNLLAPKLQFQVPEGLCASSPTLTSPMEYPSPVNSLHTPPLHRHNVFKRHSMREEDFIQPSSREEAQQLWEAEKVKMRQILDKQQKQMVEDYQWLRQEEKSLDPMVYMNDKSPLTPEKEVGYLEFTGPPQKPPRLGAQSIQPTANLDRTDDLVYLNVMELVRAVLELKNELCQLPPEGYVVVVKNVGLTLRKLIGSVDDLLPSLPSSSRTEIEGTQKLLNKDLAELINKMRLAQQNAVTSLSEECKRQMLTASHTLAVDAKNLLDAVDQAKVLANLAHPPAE

[7] = biological target: T7, IRAK1(h) (Homo sapiens, UniProt P51617); assay: Kinase panel; format: biochemical
T7 construct: purchased Millipore KinaseProfiler

[8] = test system: AKT substrate phosphorylation in BT474; assay: Western analysis of AKT signaling; format: cell-based, human; settings: BT474, 1 h
Protocol: (§1) Cells treated with DMSO or compounds for different duration were lysed using RIPA buffer (Teknova) containing protease and phosphatase inhibitors (Sigma Aldrich). Equal amounts of protein were resolved in 4–12% SDS-PAGE gels (Invitrogen), transferred onto 0.45 µm PVDF membrane (Invitrogen), and incubated with primary antibodies (1∶1000 dilution) overnight. Antibodies for AKT, phospho-AKT (Ser473 and Thr308), phospho-FOXO (Thr24/32), phospho-MEK1/2 (Ser217/221) were purchased from Cell Signaling Technologies. Phospho-GSK3β (Ser9) antibody was from R&D Systems. PRAS40 and phospho-PRAS40 (Thr246) antibodies were obtained from Millipore. Phospho-ERK1/2 (Tyr204), ERK1/2, and phospho-Caspase 9 (Ser196) antibodies were purchased from Santa Cruz Biotechnologies. Tubulin antibodies were purchased from Sigma Aldrich. Following incubation with primary antibody, blots were washed and incubated with IRDye-680 goat-anti-mouse or IRDye-800CW goat-anti-rabbit antibodies (1; 10,000 dilution; LI-COR) for 1 h. Following thorough washing, blots were analyzed using an infrared imaging system (LI-COR).

[9] = test system: AKT substrate phosphorylation in LNCaP; assay: Western analysis of AKT signaling; format: cell-based, human; settings: 1 h
Protocol: as §1

[10] = test system: pPRAS40 in LNCaP; assay: phospho-PRAS40 ELISA; format: cell-based; settings: Homo sapiens, mean ± std dev
Protocol: (§2) ELISA plates were prepared by coating with anti-GSK3β antibody (R&D Systems), and blocked with 5% Milk/0.1% Tween-20. Cells were seeded at 25,000 cells/96-well overnight and treated with DMSO or various concentrations of drug for 1 h. Cells were lysed in 20 mM Tris-HCl (pH 8.0), 137 mM NaCl, 2 mM EDTA, 10% glycerol and 1% Triton X-100 and lysates transferred to ELISA plates and incubated overnight. The plates were washed and incubated with rabbit anti-phospho-GSK3β (Ser9) antibody (R&D Systems) for 1 h. After washing, plates were developed using HRP-linked anti-rabbit IgG, and 3,3′,5,5′-tetramethylbenzidine as substrate. Absorption was measured in a microplate spectrophotometer at 450 nm. The phospho-PRAS40 ELISA followed similar methodology as above with the exception of using a commercially available PRAS40 (pThr246) kit (Biosource) and following manufacturers' instructions for the ELISA analysis.

[11] = test system: pPRAS40 in BT474; assay: phospho-PRAS40 ELISA; format: cell-based; settings: Homo sapiens, BT-474; BT474, mean ± std dev
Protocol: as §2

[12] = biological target: T8, HIPK2(h) (Homo sapiens, UniProt Q9H2X6); assay: Kinase panel; format: biochemical
T8 construct: purchased Millipore KinaseProfiler
T8 sequence (Q9H2X6 whole entry): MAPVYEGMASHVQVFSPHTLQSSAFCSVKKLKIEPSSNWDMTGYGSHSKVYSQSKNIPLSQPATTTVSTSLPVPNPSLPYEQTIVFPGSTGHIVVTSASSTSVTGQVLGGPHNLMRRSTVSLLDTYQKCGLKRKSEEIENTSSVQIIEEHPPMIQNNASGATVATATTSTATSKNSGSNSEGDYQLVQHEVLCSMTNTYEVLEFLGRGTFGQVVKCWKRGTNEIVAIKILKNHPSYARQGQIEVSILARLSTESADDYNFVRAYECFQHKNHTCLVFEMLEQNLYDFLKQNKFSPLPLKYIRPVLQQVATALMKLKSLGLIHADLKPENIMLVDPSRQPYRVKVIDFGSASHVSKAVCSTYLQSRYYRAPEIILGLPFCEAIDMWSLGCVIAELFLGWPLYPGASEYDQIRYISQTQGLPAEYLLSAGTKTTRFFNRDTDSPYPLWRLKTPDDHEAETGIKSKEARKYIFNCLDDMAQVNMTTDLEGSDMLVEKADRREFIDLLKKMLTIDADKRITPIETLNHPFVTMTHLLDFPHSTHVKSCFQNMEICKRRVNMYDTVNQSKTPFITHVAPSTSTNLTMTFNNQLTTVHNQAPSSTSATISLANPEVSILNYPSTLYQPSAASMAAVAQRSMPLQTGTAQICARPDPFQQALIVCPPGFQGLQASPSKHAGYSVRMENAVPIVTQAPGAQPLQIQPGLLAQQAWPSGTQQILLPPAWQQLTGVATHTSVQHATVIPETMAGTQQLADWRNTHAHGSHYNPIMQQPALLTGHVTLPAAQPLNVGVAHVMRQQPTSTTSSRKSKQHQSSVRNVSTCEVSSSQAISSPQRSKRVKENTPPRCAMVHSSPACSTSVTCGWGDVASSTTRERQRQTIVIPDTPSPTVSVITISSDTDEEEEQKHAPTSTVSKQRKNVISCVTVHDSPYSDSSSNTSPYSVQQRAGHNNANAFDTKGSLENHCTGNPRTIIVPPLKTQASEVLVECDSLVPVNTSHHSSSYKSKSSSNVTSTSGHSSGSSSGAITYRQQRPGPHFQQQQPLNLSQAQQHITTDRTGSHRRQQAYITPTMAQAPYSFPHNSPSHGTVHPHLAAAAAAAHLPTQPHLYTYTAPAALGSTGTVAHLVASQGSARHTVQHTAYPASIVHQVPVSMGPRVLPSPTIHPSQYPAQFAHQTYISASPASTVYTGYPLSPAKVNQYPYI

Cn1ncc(Cl)c1-c1cc(C(=O)N[C@H](CN)Cc2cccc(F)c2)sc1Cl [GSK2110183]
inhibition at 0.5 µM [1]: -6% | inhibition at 10 µM [1]: 9% | inhibition at 0.5 µM [2]: -4% | inhibition at 10 µM [2]: 0% | inhibition at 0.5 µM [3]: 63% | inhibition at 10 µM [3]: 97% | inhibition at 0.5 µM [4]: 4% | inhibition at 10 µM [4]: 5% | inhibition at 0.5 µM [5]: 2% | inhibition at 10 µM [5]: 75% | inhibition at 0.5 µM [6]: -7% | inhibition at 10 µM [6]: 2% | inhibition at 0.5 µM [7]: -5% | inhibition at 10 µM [7]: 3% | AKT substrate phosphorylation levels (GSK3β, PRAS40, FOXO, Caspase 9) [8]: concentration-dependent effect | AKT substrate phosphorylation levels (GSK3β, PRAS40, FOXO, Caspase 9) [9]: concentration-dependent effect | IC50 [10]: 104 ± 5 nM | IC50 [11]: 121 ± 40 nM | inhibition at 0.5 µM [12]: 25% | inhibition at 10 µM [12]: 87%

Cn1ncc(Cl)c1-c1cc(C(=O)N[C@H](CN)Cc2ccc(F)c(F)c2)oc1Cl [GSK2141795]
inhibition at 0.5 µM ([1]; 0.5 µM, read-out: % Inhibition): -5% | inhibition at 10 µM ([1]; 10 µM, read-out: % Inhibition): 18% | inhibition at 0.5 µM ([2]; 0.5 µM, read-out: % Inhibition): 55% | inhibition at 10 µM ([2]; 10 µM, read-out: % Inhibition): 88% | inhibition at 0.5 µM ([3]; 0.5 µM, read-out: % Inhibition): 73% | inhibition at 10 µM ([3]; 10 µM, read-out: % Inhibition): 100% | inhibition at 0.5 µM ([4]; 0.5 µM, read-out: % Inhibition): -8% | inhibition at 10 µM ([4]; 10 µM, read-out: % Inhibition): -13% | inhibition at 0.5 µM ([5]; 0.5 µM, read-out: % Inhibition): 44% | inhibition at 10 µM ([5]; 10 µM, read-out: % Inhibition): 91% | inhibition at 0.5 µM ([6]; 0.5 µM, read-out: % Inhibition): 1% | inhibition at 10 µM ([6]; 10 µM, read-out: % Inhibition): 16% | inhibition at 0.5 µM ([7]; 0.5 µM, read-out: % Inhibition): -19% | inhibition at 10 µM ([7]; 10 µM, read-out: % Inhibition): -4% | AKT substrate phosphorylation levels (GSK3β, PRAS40, FOXO, Caspase 9) [8]: concentration-dependent effect | AKT substrate phosphorylation levels (GSK3β, PRAS40, FOXO, Caspase 9) [9]: concentration-dependent effect | IC50 [10]: 55 ± 2 nM | IC50 [11]: 39 ± 0.5 nM | inhibition at 0.5 µM ([12]; 0.5 µM, read-out: % Inhibition): 26% | inhibition at 10 µM ([12]; 10 µM, read-out: % Inhibition): 83%
